Results taken from US11352399B2, “Peptide for toll-like receptor (TLR) inhibition and pharmaceutical composition comprising same” (GENESEN CO., LTD., priority 2017, dated 2022).

Legend:
TLR4 signaling pathways = assay: Western blotting of NF-κB, IRF3 and MAPK in LPS-treated RAW 264.7 cells; assay type: cell-based, mouse
Protocol: In order to perform Western blotting, a pre-protein extraction solution (M-PER, Thermo Fisher Scientific Inc.) was mixed with a protease and phosphatase inhibitor mixture, and was added to RAW 264.7 cell or hPBMC cell pellets. The pellets were cooled for 10 minutes, and then the lysates were centrifuged at 16000×g for 10 minutes. Then, NE-PER nuclear and cytoplasmic extraction reagents (Thermo Fisher Scientific Inc.) were used to extract cytoplasmic and nuclear proteins, respectively, and a BCA kit (Sigma-Alderich Co. LLC) was used to measure concentrations of the proteins. Subsequently, the same amounts of proteins were developed on SDS-polyacrylamide gels, and electrophoresis was performed using the Mini-PROTEAN Tetra Cell two-dimensional electrophoresis system (Bio-Rad Laboratories, Hercules, Calif., USA). The membrane was immunoblotted with primary antibodies by gentle shaking overnight at a temperature of 4° C. (in which the primary antibodies were antibodies against p-p65, p-JNK, p-IRF3, ERK, p38, and human IL-1β (Cell Signaling Technology Inc., Danvers, Mass., USA); p-ERK, p-p38, Iκ-Bα, JNK, ATF3, COX2, caspase-1, and β-actin (Santa Cruz Biotechnology Inc., Santa Cruz, Calif., USA); iNOS (BD Biosciences); IL-6 and mouse IL-1β (R&D Systems Inc., Minneapolis, Minn., USA); TNF-α (Thermo Fisher Scientific, Inc.); NLRP3 (Adipogen, San Diego, Calif., USA)). Then, after thorough shaking with PBST, the membrane was incubated with anti-mouse/-rabbit HRP-conjugated secondary antibodies (Thermo Fisher Scientific Inc.) for 2 hours; and the proteins were detected with SuperSignal West Pico ECL solution (Thermo Fisher Scientific Inc.) and were visualized with the Fuji LAS-3000 system (Fujifilm, Tokyo, Japan).
TLR4-mediated responses induced by LPS induce direct interactions between the TIR domain of TIRAP and MyD88, thereby activating MyD88-dependent signaling pathways. In addition, the TLR4-mediated responses induce interactions between the TIR domain of TRAM and TRIF, thereby also activating MyD88-independent signaling pathways. […]

NF-κB (p-p65) = assay: Confocal microscopy of NF-κB activity (p-p65) in LPS-treated RAW 264.7 cells; assay type: cell-based, mouse; details: LPS together with TIP1, FIG. 3
Protocol: RAW 264.7 cells and THP1 cells were dispensed into 24-well plates to a cell number of 2×10^5 cells/well, and then grown in an incubator overnight. Subsequently, combined treatment with TIP1 and LPS was performed. After 24 hours, the RAW 264.7 cells and the THP1 cells were fixed with 3.7% formaldehyde (Sigma-Aldrich Co. LLC) for 15 minutes, and immersed into 0.2% Triton X-100 (AMRESCO, Solon, Ohio, USA) for 15 minutes. Then, washing with PBS was performed three times and blocking with 2% BSA solution was performed. The blocked cells were incubated for 2 hours with TIP1-FITC (25 μM; Peptron, Inc., Daejeon, Korea), p-p65, TLR4, Myd88, TOM20 (1:1000; Santa Cruz Biotechnology Inc.), and NLRP3 (Adipogen) antibodies. Then, washing with PBS was performed three times. Subsequently, the cells were incubated with AlexaFluor […] and/or 488 and/or 546-conjugated secondary antibodies (Invitrogen, Carlsbad, Calif., USA) for 1 hour, and washed three times with PBS. Subsequently, the cells were stained at room temperature for 15 minutes using 5 μM Hoechst 33258 (Sigma-Aldrich Co.), and the number of the fluorescently stained cells was counted using a confocal laser scanning microscope (LSM-700, Carl Zeiss MicroImaging GmbH). The images were analyzed using Zen 2009 software.
The results are illustrated in FIG. 3.

RAW 264.7 cells = assay: NO secretion level in RAW 264.7 culture supernatant; assay type: cell-based, mouse; details: TIP1 and LPS
Protocol: RAW 264.7 cells and mBMDM cells were dispensed into 96-well plates (BD Biosciences) to a cell number of 2×10^5 cells/well and incubated overnight. Then, a NO level of the culture supernatant was measured using a NO detection kit (iNtRON Biotechnology Inc., Seongnam, Korea). Absorbance was measured at 550 nm using a microplate reader spectrophotometer (Molecular Devices Inc.), and the results were analyzed using Softmax Pro 5.3 software (Molecular Devices Inc.).
In addition, according to the method described in Example 2-7, a NO level in the culture supernatant of RAW 264.7 cells was measured using a NO detection kit. The results are illustrated in FIGS. 5(a)-5(c).

NLRP3 inflammasome = assay: Western blotting of NLRP3 inflammasome molecules in LPS/ATP-treated mBMDM cells; assay type: cell-based, mouse
[1] = system: collagen-induced arthritis (CIA) model DBA/1J mice; assay: Collagen-induced arthritis (CIA) model; assay type: in vivo, mouse
Protocol: Specifically, chicken collagen type II (Sigma-Aldrich Co. LLC) and complete Freund's adjuvant (Sigma-Aldrich Co. LLC.) were mixed at 1:1 and emulsified. Then, 100 μg of the emulsified collagen solution was injected intradermally into the mouse tail to induce primary immunization, which was designated day 0. After 14 days of the primary immunization, the emulsified collagen solution was injected again intradermally into the mouse tail to induce secondary immunization (boosting).
These plans included a total of seven experimental groups (n=8) and named as follows: (1) Non-treated, normal group (normal); (2) control (vehicle-treated) (CIA, n=8); (3) 2.5 nmol/g TIP1-treated group (CIA-TIP1 (2.5 nmol/g)); (4) 5 nmol/g TIP1-treated group (CIA-TIP1 (5 nmol/g)); (5) 10 nmol/g TIP1-treated group (CIA-TIP1 (10 nmol/g)); (6) 5 μg/g prednisolone (conventional therapeutic agent for arthritis)-treated group (CIA-prednisolone (5 μg/g)); (7) 10 nmol/g TIP1-treated group in post-arthritis phase (PAP) (PAP CIA-TIP1 (10 nmol/g)). TIP1 and prednisolone were dissolved in saline and injected intraperitoneally. Then, changes in behavioral development and disorders such as apparent symptoms and body weight, mouse squeaking, foot volume, and arthritis index were analyzed. The results are illustrated in FIGS. 19(a) and 19(b) and 20(a)-20(d).
Then, the mice were sacrificed on day 45 and joint tissues were sampled. Subsequently, 3D images and bone mineral density (BMD) of the joint tissues were analyzed through micro-computed tomography (Micro-CT). […] The results are illustrated in FIGS. 21 and 22.

[2] = LPS together with TIP1, FIG. 2(a)
[3] = TIP1 2.5, 5, 10 nmol/g i.p. daily, compared with prednisolone 5 mg/kg

For RQIKIWFQNRRMKWKKSHCRVLLI (TIP1), the “NF-κB activity (Western blotting)” value (TLR4 signaling pathways; [2]) was “NF-κB activity was inhibited”, the “degree of degradation of Iκ-Bα, and activity of IRF3 and ATF3” value (TLR4 signaling pathways; [2]) was “decreased” and the “MAPK activity (phosphorylation of ERK, JNK, p38)” value (TLR4 signaling pathways; LPS together with TIP1, FIG. 2(b)) was “MAPK activity was inhibited”. For the same sequence, the “NF-κB activity (LPS-induced p65 phosphorylation level in the nucleus)” value (NF-κB (p-p65)) was “NF-κB activity was decreased”, the “extracellular secretion of NO” value (RAW 264.7 cells) was “effectively decreased” and the “intracellular expression level of NLRP3” value (NLRP3 inflammasome) was “remarkably decreased”. For the same sequence, the “intracellular expression level of active caspase-1 (10 kDa)” value (NLRP3 inflammasome) was “remarkably decreased”, the “intracellular expression level of mature IL-1β (17 kDa)” value (NLRP3 inflammasome) was “remarkably decreased” and the arthritis index increase [1, 3] was “inhibited”. The “body weight loss caused by induction of arthritis” value [1, 3] was “inhibited”, the foot volume [1, 3] was “inhibited” and the squeaking [1, 3] was “inhibited”. For the same sequence, the “severely swollen foot (visual observation)” value ([1]; TIP1 i.p., FIG. 19(b)) was “alleviated similarly to the normal mice”, the “histopathological modification in cartilage, subchondral bone, femur, tibia and meniscus (H&E)” value ([1]; knee joint, once daily for 30 days) was “decreased” and the “bones damaged by the CIA model (Micro-CT 3D image, bone mineral density)” value ([1]; once daily for 30 days, sacrificed day 45) was “alleviated similarly to the normal mice”.
